From US12673946B2, “Pyrimidin-4(3H)-one derivatives as TRPV4 antagonists” (RaQualia Pharma Inc., priority 2020, dated 2026)

Target: T1, human TRPV4 (Homo sapiens, UniProt Q9HBA0)
T1 construct: host or cells: tetracycline-inducible Flp-In T-REx 293 cells
Test: Hypotonicity-induced Ca2+ influx (Fluo-4, FDSS)
Type: cell-based
Procedure, shortened: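 Flp-In T-REx 293 cells with tetracycline-induced human TRPV4, loaded with Fluo-4 for 60 min at 25 °C. Compound added 5 min before hypotonic mannitol/CaCl2 solution. Ca2+ signal recorded for 4.5 min on FDSS.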

[1] = Flp-In T-REx 293 cells expressing human TRPV4, examples listed under heading 'Human IC50<50 nM'
[2] = Flp-In T-REx 293 cells stably expressing human TRPV4, compounds listed by potency bin (<10 nM Tables 96-1/96-2, <3 nM Table 97)

T1 sequence (Q9HBA0 whole entry): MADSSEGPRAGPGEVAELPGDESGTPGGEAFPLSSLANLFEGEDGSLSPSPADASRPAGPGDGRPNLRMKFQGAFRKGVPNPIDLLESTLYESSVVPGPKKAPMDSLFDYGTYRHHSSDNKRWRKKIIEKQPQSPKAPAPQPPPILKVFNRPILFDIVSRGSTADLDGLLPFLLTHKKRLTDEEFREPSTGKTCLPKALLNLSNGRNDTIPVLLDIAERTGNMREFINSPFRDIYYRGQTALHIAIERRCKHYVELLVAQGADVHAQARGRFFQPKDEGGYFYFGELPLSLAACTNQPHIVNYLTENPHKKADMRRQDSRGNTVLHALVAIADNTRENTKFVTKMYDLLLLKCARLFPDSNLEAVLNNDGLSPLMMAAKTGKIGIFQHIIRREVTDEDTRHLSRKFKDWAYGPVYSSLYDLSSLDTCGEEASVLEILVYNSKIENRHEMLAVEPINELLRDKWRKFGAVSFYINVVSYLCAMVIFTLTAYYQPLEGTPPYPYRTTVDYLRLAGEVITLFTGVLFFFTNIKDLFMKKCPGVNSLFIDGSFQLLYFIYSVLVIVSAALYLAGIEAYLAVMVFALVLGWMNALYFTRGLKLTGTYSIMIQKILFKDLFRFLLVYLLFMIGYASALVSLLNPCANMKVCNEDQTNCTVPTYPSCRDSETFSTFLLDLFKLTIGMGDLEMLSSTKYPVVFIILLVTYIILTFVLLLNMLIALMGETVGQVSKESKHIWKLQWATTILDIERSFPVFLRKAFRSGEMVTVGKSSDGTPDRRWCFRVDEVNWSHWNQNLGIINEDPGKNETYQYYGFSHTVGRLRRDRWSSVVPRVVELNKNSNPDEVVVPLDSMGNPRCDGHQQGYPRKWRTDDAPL

| Structure (SMILES) | IC50 [1] | IC50 [2] |
| --- | --- | --- |
| O=C([C@H](O)c1cccc(C(F)(F)F)c1)N1CCCc2nc(C3(c4cccc(-c5ccnc(C(F)(F)F)c5)c4)CC3)[nH]c(=O)c2C1 [42-48] | < 50 nM | < 3 nM |
| O=C(C(O)c1cccc(-c2cccc(C(F)(F)F)c2)c1)N1CCc2nc(C3(c4cccc(Cl)c4)CC3)[nH]c(=O)c2C1 (centres unmarked) [14-8] | < 50 nM | < 10 nM |
| O=C(COc1cccc(C(F)(F)F)c1)N1CCCc2nc(C3(c4cccc(Cl)c4)CC3)[nH]c(=O)c2C1 [17-147] | < 50 nM | – |
| O=C(C(O)c1cccc(Cl)c1F)N1CCCc2nc(C3(c4cccc(Oc5ccccc5)c4)CC3)[nH]c(=O)c2C1 (centres unmarked) [17-81] | < 50 nM | < 10 nM |
| O=C([C@H](O)c1cccc(-c2cnc3ccccc3c2)c1)N1CCc2nc(C3(c4ccccc4)CC3)[nH]c(=O)c2C1 [44-81] | < 50 nM | < 3 nM |
| O=C([C@H](O)c1cccc(C(F)(F)F)c1)N1CCCc2nc(C3(c4cccc(C5CCCC5)c4)CC3)[nH]c(=O)c2C1 [31-5] | < 50 nM | < 3 nM |
| O=C(C(O)c1cccc(S(F)(F)(F)(F)F)c1)N1CCCc2nc(C3(c4cccc(Cl)c4)CC3)[nH]c(=O)c2C1 (centres unmarked) [17-27] | < 50 nM | < 10 nM |
| O=C(C(O)c1cccc(-c2ccc(Cl)c(C(F)(F)F)c2)c1)N1CCc2nc(C3(c4ccccc4)CC3)[nH]c(=O)c2C1 (centres unmarked) [44-5] | < 50 nM | < 10 nM |
| O=C(C(O)c1cccc(-c2ccc(Cl)cc2)c1)N1CCc2nc(C3(c4cccs4)CC3)[nH]c(=O)c2C1 (centres unmarked) [15-10] | < 50 nM | – |
| N#Cc1cc(Cl)cc(-c2cccc([C@@H](O)C(=O)N3CCCc4nc(C5(c6ccccc6)CC5)[nH]c(=O)c4C3)c2)c1 [49-44] | < 50 nM | < 3 nM |
| CN(C)Cc1ccc(-c2cccc(C3(c4nc5c(c(=O)[nH]4)CN(C(=O)[C@H](O)c4cccc(C(F)(F)F)c4)CCC5)CC3)c2)cc1 [42-53] | < 50 nM | – |
| O=C([C@H](O)c1cccc(Cl)c1)N1CCc2nc(C3(c4cc(Br)cs4)CC3)[nH]c(=O)c2C1 [6-18] | < 50 nM | – |
| O=C([C@H](O)c1cccc(F)c1F)N1CCCc2nc(C3(c4ccccc4)CC3)[nH]c(=O)c2C1 [10-6] | < 50 nM | – |
| CC(C)c1csc(C2(c3nc4c(c(=O)[nH]3)CN(C(=O)C(F)(F)c3cccc(Cl)c3)CCC4)CC2)c1 [21-3] | < 50 nM | < 3 nM |
| CC(C)(C)c1cccc(C(O)C(=O)N2CCc3nc(C4(c5ccccc5)CC4)[nH]c(=O)c3C2)c1 (centres unmarked) [14-30] | < 50 nM | – |
| CCc1csc(C2(c3nc4c(c(=O)[nH]3)CN(C(=O)[C@H](O)c3cccc(C(F)(F)F)c3)CCC4)CC2)c1 [30-2] | < 50 nM | < 3 nM |
| O=C([C@H](O)c1cccc(-c2ccnc(C(F)(F)F)c2)c1)N1CCCc2nc(C3(c4cccc(Cl)c4)CC3)[nH]c(=O)c2C1 [50-11] | < 50 nM | < 3 nM |
| O=C([C@H](O)c1cccc(Cl)c1)N1CCc2nc(C3(c4cncc(C5CCC(F)(F)CC5)c4)CC3)[nH]c(=O)c2C1 [25-4] | < 50 nM | < 10 nM |
| O=C([C@H](O)c1cccc(-c2cccc(Cl)c2)c1)N1CCc2nc(C3(c4cccc(Cl)c4)CC3)[nH]c(=O)c2C1 [45-8] | < 50 nM | < 10 nM |
| CC(C)c1cncc(C2(c3nc4c(c(=O)[nH]3)CN(C(=O)C(F)(F)c3cccc(C(F)(F)F)c3)CC4)CC2)c1 [22-9] | < 50 nM | < 10 nM |
| CC(C)(C)c1cccc(-c2cccc(C(O)C(=O)N3CCc4nc(C5(c6ccccc6)CC5)[nH]c(=O)c4C3)c2)c1 (centres unmarked) [44-7] | < 50 nM | < 10 nM |

| Structure (SMILES) | IC50 [1] | IC50 [2] |
| --- | --- | --- |
| N#Cc1ccc(-c2cccc(CC(=O)N3CCCc4nc(C5(c6cccc(Cl)c6)CC5)[nH]c(=O)c4C3)c2)cc1 [17-126] | < 50 nM | < 10 nM |
| O=C(C(O)c1cccc(-c2cccc(OC(F)(F)F)c2)c1)N1CCc2nc(C3(c4ccccc4)CC3)[nH]c(=O)c2C1 (centres unmarked) [44-1, 6-(2-hydroxy-2-(3′-(trifluoromethoxy)-[1,1′-biphenyl]-3-yl)acetyl)-2-(1-phenylcyclopropyl)-5,6,7,8-tetrahydropyrido[4,3-d]pyrimidin-4(3H)-one] | < 50 nM | < 10 nM |
| CC(C)c1cccc(C2(c3nc4c(c(=O)[nH]3)CN(C(=O)C(O)c3cccc(S(F)(F)(F)(F)F)c3)CCC4)CC2)c1 (centres unmarked) [17-39] | < 50 nM | < 10 nM |
| O=C(C(O)c1cccc(-c2ccc(C(F)F)cc2)c1)N1CCc2nc(C3(c4ccccc4)CC3)[nH]c(=O)c2C1 (centres unmarked) [44-31] | < 50 nM | – |
| O=C([C@H](O)c1cccc(Cl)c1)N1CCc2nc(C3(c4cccc(-c5cccnc5)c4)CC3)[nH]c(=O)c2C1 [34-1] | < 50 nM | – |
| O=C(C(O)c1cccc(S(F)(F)(F)(F)F)c1)N1CCc2nc(C3(c4cccc(F)c4)CC3)[nH]c(=O)c2C1 (centres unmarked) [14-23] | < 50 nM | – |
| O=C(C(O)c1cccc(-c2csc(Cl)c2)c1)N1CCc2nc(C3(c4ccccc4)CC3)[nH]c(=O)c2C1 (centres unmarked) [44-27] | < 50 nM | – |
| CC(C)c1cncc(C2(c3nc4c(c(=O)[nH]3)CN(C(=O)C(O)c3cccc(-c5cccc(C(F)(F)F)c5)c3)CCC4)CC2)c1 (centres unmarked) [55-3] | < 50 nM | < 10 nM |
| CC(C)(C)c1cccc(C(O)C(=O)N2CCCc3nc(C4(c5cccc(Cl)c5)CC4)[nH]c(=O)c3C2)c1 (centres unmarked) [17-18] | < 50 nM | < 10 nM |
| CC(C)c1cccc(C2(c3nc4c(c(=O)[nH]3)CN(C(=O)[C@H](O)c3cccc(-c5cccc(C(F)(F)F)c5)c3)CCC4)CC2)c1 [51-2] | < 50 nM | < 10 nM |
| Cc1cc(Cl)cc(-c2cccc([C@@H](O)C(=O)N3CCCc4nc(C5(c6ccccc6)CC5)[nH]c(=O)c4C3)c2)c1 [49-29] | < 50 nM | < 10 nM |
| O=C([C@H](O)c1cccc(C(F)(F)F)c1)N1CCCc2nc(C3(c4cccc(-c5ccc(C6(O)CCOCC6)cc5)c4)CC3)[nH]c(=O)c2C1 [42-22] | < 50 nM | < 10 nM |
| O=C(Cc1ccc2ccccc2c1)N1CCCc2nc(C3(c4cccc(Cl)c4)CC3)[nH]c(=O)c2C1 [17-115] | < 50 nM | – |
| O=C([C@H](O)c1cccc(C(F)(F)F)c1)N1CCCc2nc(C3(c4cccc(-c5cncc(C(F)(F)F)c5)c4)CC3)[nH]c(=O)c2C1 [42-45] | < 50 nM | < 10 nM |
| COc1cccc(-c2cccc(C(O)C(=O)N3CCc4nc(C5(c6ccccc6)CC5)[nH]c(=O)c4C3)c2)c1 (centres unmarked) [44-53] | < 50 nM | – |
| O=C(Cc1cccc(-c2cccc(OC(F)(F)F)c2)c1)N1CCCc2nc(C3(c4ccccc4)CC3)[nH]c(=O)c2C1 [57-2] | < 50 nM | < 3 nM |
| O=C([C@H](O)c1cccc(Cl)c1)N1CCc2nc(C3(c4ccccc4)CC3)[nH]c(=O)c2C1 [2-33, (R)-6-(2-(3-chlorophenyl)-2-hydroxyacetyl)-2-(1-phenylcyclopropyl)-5,6,7,8-tetrahydropyrido[4,3-d]pyrimidin-4(3H)-one] | < 50 nM | – |
| N#Cc1cc(-c2cccc(C3(c4nc5c(c(=O)[nH]4)CN(C(=O)[C@H](O)c4cccc(C(F)(F)F)c4)CCC5)CC3)c2)ccc1F [42-66] | < 50 nM | < 3 nM |
| O=C([C@H](O)c1cccc(C(F)(F)F)c1)N1CCCc2nc(C3(c4cc(C5CCC(F)(F)CC5)cs4)CC3)[nH]c(=O)c2C1 [30-3] | < 50 nM | < 3 nM |
| O=C([C@H](O)c1cccc(Cl)c1)N1CCc2nc(C3(c4cc(F)cc(F)c4)CC3)[nH]c(=O)c2C1 [3-58] | < 50 nM | – |
